According to ChEMBL document CHEMBL1201862, “PubChem BioAssay data set” (2004):
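1) Cells in 96-well plates. 2) Compound, 48 h, 5 concentrations. 3) Linear interpolation between surrounding doses. 4) Unreached endpoint = highest concentration. The concentration for 50% growth inhibition is given as GI50.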 Active and inactive are the calls of the source. Cut-off read from the data, not from the text of the source: active = GI50 up to about 1.1 µM and inactive = higher.

Assays:
Experiment in all cases: NCI tumour cell line growth inhibition, 48 h
SF-268 = tested on: SF-268
NCI-H23 = tested on: NCI-H23
SW-620 = tested on: SW-620
SK-MEL-28 = tested on: SK-MEL-28
MOLT-4 = tested on: MOLT-4
TK-10 = tested on: TK-10
HCC 2998 = tested on: HCC 2998
SF-295 = tested on: SF-295
MCF7 = tested on: MCF7
HT-29 = tested on: HT-29
SNB-19 = tested on: SNB-19
LOX IMVI = tested on: LOX IMVI
OVCAR-4 = tested on: OVCAR-4
CCRF-CEM = tested on: CCRF-CEM
SK-MEL-2 = tested on: SK-MEL-2
PC-3 = tested on: PC-3
UACC-62 = tested on: UACC-62
Malme-3M = tested on: Malme-3M
SNB-75 = tested on: SNB-75
786-0 = tested on: 786-0

| SMILES | GI50 (SF-268) | GI50 (NCI-H23) | GI50 (SW-620) | GI50 (SK-MEL-28) | GI50 (MOLT-4) | GI50 (TK-10) | GI50 (HCC 2998) | GI50 (SF-295) | GI50 (MCF7) | GI50 (HT-29) | GI50 (SNB-19) | GI50 (LOX IMVI) | GI50 (OVCAR-4) | GI50 (CCRF-CEM) | GI50 (SK-MEL-2) | GI50 (PC-3) | GI50 (UACC-62) | GI50 (Malme-3M) | GI50 (SNB-75) | GI50 (786-0) |
| --- | --- | --- | --- | --- | --- | --- | --- | --- | --- | --- | --- | --- | --- | --- | --- | --- | --- | --- | --- | --- |
| CCCCNc1nc(SC)nc2[nH]cnc12 | 98.4 µM (inactive) | > 100 µM (inactive) | > 100 µM (inactive) | > 100 µM (inactive) | > 100 µM (inactive) | > 100 µM (inactive) | > 100 µM (inactive) | > 100 µM (inactive) | > 100 µM (inactive) | > 100 µM (inactive) | > 74 µM (inactive) | > 100 µM (inactive) | > 100 µM (inactive) | > 100 µM (inactive) | > 100 µM (inactive) | > 100 µM (inactive) | > 100 µM (inactive) | > 100 µM (inactive) | 76.7 µM (inactive) | > 100 µM (inactive) |
| Cc1cc(NC(=O)NC(=O)c2ccccc2NC(=O)C(C)N)ccc1Oc1ncc(Br)cn1 (stereo not given) | 0.408 µM (active) | 0.172 µM (active) | 0.185 µM (active) | 0.184 µM (active) | 0.23 µM (active) | 1.22 µM (inactive) | 0.298 µM (active) | 0.0256 µM (active) | 0.152 µM (active) | 0.116 µM (active) | 0.248 µM (active) | 0.173 µM (active) | 5.36 µM (inactive) | 0.0619 µM (active) | 0.153 µM (active) | 0.0391 µM (active) | 0.0693 µM (active) | 0.188 µM (active) | < 0.01 µM (active) | 0.0559 µM (active) |
| C=C1C[C@H](O)[C@H](Br)C(C)(C)C12CCC(C)(Cl)C(Br)C2 (stereo not given in full) | 6.87 µM (inactive) | 0.445 µM (active) | 4.99 µM (inactive) | 7.74 µM (inactive) | 0.451 µM (active) | 3.15 µM (inactive) | 5.52 µM (inactive) | 1.19 µM (inactive) | 3.25 µM (inactive) | 0.141 µM (active) | 1.23 µM (inactive) | 10 µM (inactive) | 0.635 µM (active) | 0.0359 µM (active) | 1 µM (active) | 0.153 µM (active) | 5.85 µM (inactive) | 5.87 µM (inactive) | 1.94 µM (inactive) | 5.48 µM (inactive) |
| CN1C(=O)C2(Cc3cn(C45CC67SSC(CO)(C(=O)N6C4Nc4ccccc45)N(C)C7=O)c4ccccc34)SSC1(CO)C(=O)N2C (stereo not given) | 0.0191 µM (active) | < 0.01 µM (active) | 0.0108 µM (active) | 0.084 µM (active) | 0.0405 µM (active) | 0.0243 µM (active) | 0.0229 µM (active) | 0.309 µM (active) | < 0.01 µM (active) | < 0.01 µM (active) | 0.271 µM (active) | 0.0114 µM (active) | < 0.01 µM (active) | 1.52 µM (inactive) | 0.1 µM (active) | 0.0478 µM (active) | 0.0239 µM (active) | < 0.01 µM (active) | 0.0423 µM (active) | < 0.01 µM (active) |
| C#CCn1c(=O)c(C)cn(/C(=C/C(=O)OCC)C(=O)OCC)c1=O | 12.4 µM (inactive) | 9.57 µM (inactive) | 1.67 µM (inactive) | 4.9 µM (inactive) | 3.43 µM (inactive) | 2.01 µM (inactive) | 17.8 µM (inactive) | 18.5 µM (inactive) | 2.97 µM (inactive) | 2.23 µM (inactive) | 14.6 µM (inactive) | 10.4 µM (inactive) | 6.28 µM (inactive) | 1.04 µM (active) | 13.2 µM (inactive) | 12.6 µM (inactive) | 12.2 µM (inactive) | 1.59 µM (inactive) | 15 µM (inactive) | 2.84 µM (inactive) |
| COc1cc(/C=C2\N=C(c3ccccc3)N(c3nc4ccc(Sc5ccccc5)cc4[nH]3)C2=O)ccc1O | 25.5 µM (inactive) | 26.8 µM (inactive) | 21.7 µM (inactive) | 21.2 µM (inactive) | 26.1 µM (inactive) | 20.7 µM (inactive) | 15.8 µM (inactive) | 27.9 µM (inactive) | 17.5 µM (inactive) | 18.4 µM (inactive) | 31.8 µM (inactive) | 25.5 µM (inactive) | 30.1 µM (inactive) | 6.14 µM (inactive) | 13.5 µM (inactive) | 24.4 µM (inactive) | 15.2 µM (inactive) | 18 µM (inactive) | 33.6 µM (inactive) | 21.7 µM (inactive) |
| C/C=C(\N=C=S)C(=O)OC1C(COC(C)=O)OC([C@]2(O)CC(=O)C(N)=C(C(=O)O)C2=O)C(O)C1OC1CC(OC)C(O)([C@@H](C)OC(=O)[C@@H](C)CC)C(C)O1 (stereo not given in full) | 9.57 µM (inactive) | 9.84 µM (inactive) | 3.01 µM (inactive) | 7.66 µM (inactive) | 2.44 µM (inactive) | 16.7 µM (inactive) | 18.9 µM (inactive) | 18.1 µM (inactive) | 14.5 µM (inactive) | 8.49 µM (inactive) | 11.9 µM (inactive) | 6.34 µM (inactive) | 4.26 µM (inactive) | 2.4 µM (inactive) | 9.33 µM (inactive) | 15.7 µM (inactive) | 5.31 µM (inactive) | 9.57 µM (inactive) | 16.9 µM (inactive) | 12.3 µM (inactive) |
| CCOC(=O)CCc1cc(=O)oc2cc(O)cc(O)c12 | > 100 µM (inactive) | > 100 µM (inactive) | > 100 µM (inactive) | > 100 µM (inactive) | > 100 µM (inactive) | > 100 µM (inactive) | 52.7 µM (inactive) | > 100 µM (inactive) | > 100 µM (inactive) | > 100 µM (inactive) | > 100 µM (inactive) | > 100 µM (inactive) | > 100 µM (inactive) | > 100 µM (inactive) | > 100 µM (inactive) | > 100 µM (inactive) | > 100 µM (inactive) | > 100 µM (inactive) | > 100 µM (inactive) | > 100 µM (inactive) |
| Cc1ccc(NC(=O)CSC(N)=O)cc1C | > 100 µM (inactive) | > 100 µM (inactive) | > 100 µM (inactive) | > 100 µM (inactive) | 30.8 µM (inactive) | > 100 µM (inactive) | > 100 µM (inactive) | > 100 µM (inactive) | 31 µM (inactive) | > 100 µM (inactive) | > 100 µM (inactive) | 37.9 µM (inactive) | > 100 µM (inactive) | > 100 µM (inactive) | > 100 µM (inactive) | > 100 µM (inactive) | 93.8 µM (inactive) | > 100 µM (inactive) | > 100 µM (inactive) | 48.2 µM (inactive) |
| CC1(C)C/C=C\CCC(O)C(O)CCC(C)(C)C1=O (stereo not given) | > 100 µM (inactive) | > 100 µM (inactive) | > 100 µM (inactive) | > 100 µM (inactive) | > 100 µM (inactive) | > 100 µM (inactive) | 17.1 µM (inactive) | > 100 µM (inactive) | > 100 µM (inactive) | > 100 µM (inactive) | > 100 µM (inactive) | > 100 µM (inactive) | > 100 µM (inactive) | > 100 µM (inactive) | > 100 µM (inactive) | > 100 µM (inactive) | > 100 µM (inactive) | > 100 µM (inactive) | > 100 µM (inactive) | > 100 µM (inactive) |
| CC(C)=CC[C@]12CCN[C@H]1N(S(=O)(=O)c1ccccc1)c1ccccc12 | 14.8 µM (inactive) | > 100 µM (inactive) | 18.4 µM (inactive) | 16.4 µM (inactive) | 21.1 µM (inactive) | 34.9 µM (inactive) | 16.7 µM (inactive) | 14.8 µM (inactive) | 18.2 µM (inactive) | 18.5 µM (inactive) | 21.5 µM (inactive) | 15.9 µM (inactive) | 14.3 µM (inactive) | 23.6 µM (inactive) | 14.2 µM (inactive) | 13.5 µM (inactive) | 13.2 µM (inactive) | 16.3 µM (inactive) | 17.1 µM (inactive) | 15.6 µM (inactive) |
| CCN(CC)c1ccc(/C=C/C2=NN(c3cccc(S(=O)(=O)O)c3)C3(C2)C(Cl)C(=O)N3c2nc3ccccc3s2)cc1 (stereo not given) | 16.8 µM (inactive) | 7.01 µM (inactive) | 10.2 µM (inactive) | 20.7 µM (inactive) | 3.04 µM (inactive) | 4.95 µM (inactive) | 7.36 µM (inactive) | 13.3 µM (inactive) | 6.7 µM (inactive) | 13.8 µM (inactive) | 12.5 µM (inactive) | 2.82 µM (inactive) | 4.89 µM (inactive) | 1.83 µM (inactive) | 12.5 µM (inactive) | 8.28 µM (inactive) | 7.91 µM (inactive) | 11.1 µM (inactive) | 11.1 µM (inactive) | 5.65 µM (inactive) |
| Cn1c2ccc3cc2c(=S)c2cc(ccc21)OCCOCCOCCOCCOCCO3 | > 10 µM (inactive) | > 10 µM (inactive) | > 10 µM (inactive) | > 10 µM (inactive) | > 10 µM (inactive) | > 10 µM (inactive) | > 10 µM (inactive) | > 10 µM (inactive) | > 10 µM (inactive) | > 10 µM (inactive) | > 10 µM (inactive) | > 10 µM (inactive) | > 10 µM (inactive) | > 10 µM (inactive) | > 10 µM (inactive) | > 10 µM (inactive) | > 10 µM (inactive) | > 10 µM (inactive) | > 10 µM (inactive) | > 10 µM (inactive) |
| Cn1c(=S)[nH]c(N)c(Cc2ccccc2)c1=O | > 100 µM (inactive) | > 100 µM (inactive) | > 100 µM (inactive) | > 100 µM (inactive) | 41.8 µM (inactive) | 81.8 µM (inactive) | > 100 µM (inactive) | > 100 µM (inactive) | > 100 µM (inactive) | 77.8 µM (inactive) | > 100 µM (inactive) | > 100 µM (inactive) | > 100 µM (inactive) | > 100 µM (inactive) | > 100 µM (inactive) | > 100 µM (inactive) | 40.2 µM (inactive) | 78 µM (inactive) | 20.3 µM (inactive) | > 100 µM (inactive) |
